Reference: PubChem BioAssay (NCI)
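Cultured in 96-well plates, cells were exposed to test compound for 48 hours across five concentrations. Here, GI50 denotes the concentration required for 50% inhibition of growth. TGI: concentration producing complete growth inhibition.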

Assays:
Assay in all cases: growth of human tumour cells (NCI), 48 h
MALME-3M melanoma = system: MALME-3M melanoma
HS 578T breast = system: HS 578T breast
NCI/ADR-RES ovarian = system: NCI/ADR-RES ovarian
PC-3 prostate = system: PC-3 prostate
ACHN renal = system: ACHN renal
SK-MEL-5 melanoma = system: SK-MEL-5 melanoma
A549 NSCLC = system: A549 NSCLC
HT29 colon = system: HT29 colon
UACC-62 melanoma = system: UACC-62 melanoma
HOP-62 NSCLC = system: HOP-62 NSCLC

Compound	TGI (MALME-3M melanoma)	TGI (HS 578T breast)	TGI (NCI/ADR-RES ovarian)	TGI (PC-3 prostate)	TGI (ACHN renal)	TGI (SK-MEL-5 melanoma)	TGI (A549 NSCLC)	TGI (HT29 colon)	TGI (UACC-62 melanoma)	TGI (HOP-62 NSCLC)	GI50 (MALME-3M melanoma)	GI50 (HS 578T breast)	GI50 (NCI/ADR-RES ovarian)	GI50 (PC-3 prostate)	GI50 (ACHN renal)	GI50 (SK-MEL-5 melanoma)	GI50 (A549 NSCLC)	GI50 (HT29 colon)	GI50 (UACC-62 melanoma)	GI50 (HOP-62 NSCLC)
CC(=O)Nc1ccc2c(c1)C(=O)c1cccc(F)c1-2	> 100 µM	> 100 µM	> 100 µM	> 100 µM	> 100 µM	> 100 µM	> 100 µM	> 100 µM	> 100 µM	> 100 µM										
O=c1[nH]ccc2nc(-c3ccc(CN4CCC(c5nc(-c6ccccn6)n[nH]5)CC4)cc3)c(-c3ccccc3)cc12	34.7 µM	16.5 µM	> 100 µM	> 100 µM	> 100 µM	24 µM	> 100 µM	> 100 µM	> 86.6 µM	> 100 µM	2.09 µM	0.592 µM	36.7 µM	0.153 µM	21.2 µM	6.03 µM	16.2 µM	1.98 µM	16.3 µM	27.8 µM
CC(C)(C)c1cn2cccc(C(=O)N3CCN(CC(=O)Nc4ccc(Cl)cc4C(=O)c4ccccc4Cl)CC3)c2n1	38.8 µM	19.9 µM	> 100 µM	6.88 µM	61.4 µM	12.7 µM	23.3 µM	12.1 µM	26 µM	32.3 µM	19.9 µM	4.72 µM	6.7 µM	2.35 µM	6.62 µM	3.62 µM	2.64 µM	3.33 µM	10.7 µM	15.4 µM
CC(=O)c1c(O)ccc2c(C)c(C(=O)O)oc12	> 100 µM	> 100 µM	> 100 µM	> 100 µM	> 100 µM	> 100 µM	> 100 µM	> 100 µM	> 100 µM	> 100 µM	> 100 µM	> 100 µM	> 100 µM	> 100 µM	> 100 µM	> 100 µM	> 100 µM	> 100 µM	80.4 µM	> 100 µM
CC1CC(C)/C(=N/NC(N)=O)C(C(O)CC2CCC(=O)NC2=O)C1 (stereo not given)	41.8 µM	8.25 µM	> 100 µM	> 100 µM	> 100 µM	34.8 µM	56.7 µM	> 100 µM	> 100 µM	> 100 µM	3.21 µM	1.34 µM	3.66 µM	4.1 µM	1.32 µM	2.85 µM	2.36 µM	3.49 µM	2.79 µM	2.99 µM
O=C1Nc2ccccc2/C1=C/c1cn(C(=O)c2c(Cl)cccc2Cl)c2ccccc12	14.9 µM	8.98 µM	18 µM	11.2 µM	21.7 µM	20.4 µM	17.6 µM	14.9 µM	19.9 µM	40.4 µM	2.61 µM	2.17 µM	3.4 µM	2.39 µM	3.17 µM	7.52 µM	3.23 µM	3.92 µM	4.8 µM	12.8 µM
Cn1ccnc1C(=O)/C=C/c1ccc(C(=O)Nc2ccccc2O)cc1	3.81 µM	15.9 µM	22.6 µM	4.8 µM	4.01 µM	11.1 µM	13.6 µM	7.3 µM	5.01 µM	15.1 µM	1.63 µM	2.95 µM	2.86 µM	1.89 µM	1.99 µM	3.36 µM	3.03 µM	2.4 µM	1.93 µM	4.6 µM
COc1cc(C2CC(c3ccc(Nc4ccnc5cc(Cl)ccc45)cc3)=NN2C=O)cc(OC)c1OC (stereo not given)	8.32 µM	27.7 µM	> 100 µM	> 100 µM	10.6 µM	6.28 µM	> 100 µM	7.17 µM	6.87 µM	20.8 µM	3.2 µM	3.24 µM	7.88 µM	11.7 µM	3.24 µM	1.98 µM	6.9 µM	2.83 µM	2.2 µM	4.13 µM
COc1cc(C(=O)N2CCN(c3ccccc3OC)CC2)c(N)cc1OCc1ccccc1	55.6 µM	> 100 µM	> 100 µM	> 100 µM	> 100 µM	31.4 µM	> 100 µM	> 100 µM	77.1 µM	> 100 µM	22.3 µM	42.7 µM	33.5 µM	23.8 µM	32.4 µM	16.5 µM	34.8 µM	31.3 µM	26 µM	34.4 µM
CN(C)c1ccc(/C=C/c2ccnc3ccccc23)cc1N	28.8 µM	61.3 µM	53.9 µM	22 µM	24.1 µM	11.5 µM	32.6 µM	17.7 µM	25.9 µM	28.4 µM										
N#CCC12CC=CCC1=C(O)C(=O)c1ccc(O)cc12 (stereo not given)	> 100 µM	> 100 µM	> 100 µM	> 100 µM	> 100 µM	> 100 µM	> 100 µM	> 100 µM	> 100 µM	> 100 µM										
Cc1cc(O)ccc1O	31.1 µM	> 100 µM	> 100 µM	> 100 µM	29.1 µM	> 100 µM	> 100 µM	> 100 µM	81.3 µM	> 100 µM	15.8 µM	26.7 µM	23.5 µM	32.8 µM	15.7 µM	62 µM	> 100 µM	49.8 µM	17.9 µM	34.8 µM
COc1cc(-n2cc(-c3ccc(F)cc3)[nH]c2=S)cc(OC)c1OC	> 100 µM	> 100 µM	> 100 µM	> 100 µM	> 100 µM	> 100 µM	> 100 µM	> 100 µM	> 100 µM	> 100 µM	> 100 µM	18.3 µM	> 100 µM	80.1 µM	> 100 µM	> 100 µM	> 100 µM	> 100 µM	> 100 µM	> 100 µM
